Laboratory results as given in US9029414B2, “Triterpenoid compounds and methods of use thereof” (Biotechnology Research Corporation, priority 2008, dated 2015).

Columns and labels:
[1] = molecular target: T1, EP1 receptor (Homo sapiens, UniProt P34995); test: Cellular receptor functional assay (cAMP), EP1; type: cell-based; set-up: expressed in transfected cells; host or cells: CHO cells; conditions: for Antagonist effect, cAMP measurement: in presence of PGE2
T1 sequence (P34995 1-402): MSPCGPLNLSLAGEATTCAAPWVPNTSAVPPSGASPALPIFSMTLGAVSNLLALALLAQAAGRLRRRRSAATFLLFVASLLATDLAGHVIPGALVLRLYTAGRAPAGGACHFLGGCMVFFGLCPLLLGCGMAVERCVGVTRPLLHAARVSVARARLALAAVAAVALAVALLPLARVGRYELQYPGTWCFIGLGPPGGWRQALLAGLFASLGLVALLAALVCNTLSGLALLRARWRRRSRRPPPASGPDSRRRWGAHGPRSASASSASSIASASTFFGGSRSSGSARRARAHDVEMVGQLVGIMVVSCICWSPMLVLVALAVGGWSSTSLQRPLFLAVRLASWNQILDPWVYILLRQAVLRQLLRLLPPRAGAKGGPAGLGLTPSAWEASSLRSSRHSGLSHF
Method: To determine whether the inhibitory effect of DA001 on the ligand binding to EP receptors results from agonist or antagonist activity, DA001 was evaluated at a single concentration (10 μM) on cellular-specific receptor functional assays. Upon ligand binding, the EP receptors are activated which leads to an increase in intracellular cyclic AMP.
DA001 (10 μM) was subjected to ligand binding assay with the human EP1 or EP4 receptor over-expressing CHO cells. Results are expressed as a percent of control specific agonist response [100-(measured specific response/control specific agonist response)×100] obtained in the presence of DA001.
DA021 inhibits PGE2 ligand binding to EP1, EP2 and EP4 receptors. To determine whether the inhibitory effect is due to agonist or antagonist activity, DA021 was evaluated and compared at 1 concentration (30 uM) in cellular assays assessing receptor function. Upon ligand binding, the EP receptors are activated which leads to an increase in intracellular cyclic AMP.

[2] = tested on: cortical neurons; test: Cortical neuron survival assay against kainate excitotoxicity (LDH); type: cell-based, Sprague-Dawley rats; conditions: kainate 5-500 μM 20 min; for protection from kainate-induced excitotoxicity (LDH release): 30 μM 24 hrs
Method: Cortical neurons were prepared from embryonic day 18 Sprague-Dawley rats. After the cortices had been removed from the brain, isolated cells were plated onto Poly d-Lysine (PDL) (P0899, Sigma)-coated 48 well plates (150687, NUNC) at a density of 2×10^5 cell per well using Neurobasal Medium (NB) (21103-049, Gibco) with B27 supplement (17504-044, Gibco), penicillin/streptomycin (15140, Gibco) and 1 mM L-glutamine (25030, Gibco). The cell culture was incubated at 37° C. in a humidified atmosphere of 5% CO2 in air. Medium was changed to growth medium (Neurobasal Medium with penicillin/streptomycin and B27 supplement) after 3 hours. Half medium was changed with growth medium every 2-3 days to maintain the cells until day 10 in vitro (DIV 10). Serial dilutions of samples were prepared in growth medium and DMSO was used as vehicle control. For pre-treating assay, half of the medium was removed from wells, and equal amount of diluted samples were replaced. Cells were then incubated for 2 hours at 37° C. in a humidified atmosphere of 5% CO2 in air. Culture was subsequently rinsed with Locke's solution (5 mM potassium chloride, 128 mM sodium chloride, 2.7 mM calcium chloride, 1 mM di-sodium hydrogen orthophosphate, 5 mM HEPES and 10 mM Glucose in Milli-Q water), then incubated with Locke's solution in the presence of glycine (10 μM) for 15 minutes before […] treatment. Kainate dissolved in Locke's plus glycine solution was then substituted and incubated for 20 minutes at 37° C. […] Afterwards, cells were incubated in growth medium for 18-24 hours and detected with Cytotoxicity Detection Kit (1644793, Roche). […]
FIG. 5 illustrates that DA001 protects neurons against differing concentrations of kainate. […] LDH release into the medium was then measured.
Cortical neurons were treated with DA021 or DA034 and subsequently subjected to varying concentrations of kainate. […] LDH release into the medium was then measured.

SMILES | Antagonist effect, cAMP measurement ([1]; 10 μM) [%] | Agonist effect, cAMP measurement ([1]; 10 μM, percent of control specific agonist response) [%] | cell death (LDH release) vs DMSO control ([2]; 40 μM 24 hrs, at high concentrations of kainate) | Agonist effect, cAMP measurement ([1]; 30 uM) | Antagonist effect, cAMP measurement ([1]; 30 uM) | protection from kainate-induced excitotoxicity (LDH release) [2]
C=C(C)[C@@H]1CC[C@]2(C(=O)O)CC[C@]3(C)C(CC[C@@H]4[C@@]5(C)CC[C@H](O[C@@H]6OC[C@H](O)[C@H](O)[C@H]6O[C@@H]6O[C@@H](C)[C@H](O)[C@@H](O)[C@H]6O)[C@@](C)(CO)[C@@H]5CC[C@]43C)[C@@H]12 (stereo partly drawn) [DA001, 3-O-[α-L-rhamnopyranosyl-(1→2)-α-L-arabinopyranosyl]-3,23-dihydroxy-20(29)-lupen-28-oic acid] | 38 | 8.1 | significant reduction in cell death | – | – | –
C=C(C)[C@@H]1CC[C@]2(/C=N/O)CC[C@]3(C)C(CCC4[C@@]5(C)CCC(=O)[C@@](C)(CO)[C@@H]5CC[C@]43C)C12 (stereo partly shown) [DA021] | – | – | – | 9 | 87 | protect neurons against differing concentrations of Kainate
CC(=O)OC[C@]12CC[C@@H](C3(C)CO3)C1C1CCC3[C@@]4(C)CC[C@H](O)[C@@](C)(CO)[C@@H]4CC[C@@]3(C)[C@]1(C)CC2 (stereo partly shown) [DA034] | – | – | – | – | – | protect neurons against differing concentrations of Kainate
